Experimental data from PMC3753754, “Andrographis paniculata Extract and Andrographolide Modulate the Hepatic Drug Metabolism System and Plasma Tolbutamide Concentrations in Rats” (Evidence-based Complementary and Alternative Medicine : eCAM, 2013).
Marks after values point to notes of the source that are not given here.

Key:
[1] = Pharmacokinetics of tolbutamide in control, APE-pretreated and andrographolide-pretreated rats; assay type: in vivo, Sprague-Dawley rats; conditions: rats, 2 g/kg/day APE or 50 mg/kg/day andrographolide for 5 days before 20 mg/kg tolbutamide
Method: (§1) Seven-week-old male Sprague-Dawley rats cannulated in the jugular vein were purchased from the Bio LASCO Experimental Animal Center (Taipei, Taiwan). The animals were fed a standard rat diet and were randomly assigned into control, APE-treated, and andrographolide-treated groups (n = 5). Rats were housed in plastic cages in a room kept at 23 ± 1°C and 60 ± 5% relative humidity with a 12-hour light and dark cycle. Food and drinking water were available ad libitum. Control rats were orally administered methyl cellulose. […] After the 5th daily dose, rats were deprived of food overnight. On day 6, a 20 mg/kg oral dose of tolbutamide, as a solution in Cremophor EL (polyoxyl 35 hydrogenated castor oil, Sigma)/ethanol/water (30/10/60, v/v/v), was administered to each rat. After the administration of tolbutamide, serial blood samples were collected up to 12 h after dosing from each rat. The animals were then killed by exsanguination, and the livers were collected.
Tolbutamide was prepared in a solution of Cremophor EL/ethanol/water (30/10/60, v/v/v). After administration, blood samples (~200 μL) were collected from the tail vein of each rat at 0.25, 0.5, 1, 2, 4, 8, and 12 h after dosing. Plasma was separated from blood by centrifugation (4000 ×g for 20 min at 4°C). An aliquot of 50 μL plasma was mixed with 100 μL acetonitrile and then centrifuged at 10,000 ×g for 15 min at 4°C. The supernatant was used to determine the concentration of tolbutamide by LC/MS. Calibration standards of tolbutamide were prepared by serial dilution of a tolbutamide stock solution with blank plasma, yielding final concentrations of tolbutamide ranging from 1 to 300 μg/mL of plasma.
The HPLC system consisted of an Agilent 1100 series LC System (Palo Alto, CA) and an Agilent Zorbax Eclipse XDB-C8 column (3 μm, 3.0 mm × 150 mm), interfaced to an Agilent MSD mass spectrometer equipped with an electrospray ionization source. Column temperature was set at 25°C. The initial mobile phase composition was 30% acetonitrile containing 10 mM ammonium acetate (solvent A) and 70% of 0.1% formic acid (solvent B). The following gradient system was used: 30% A to 50% A (0-1 min), 50% A to 98% A (1–3 min), 98% A (3–9 min), 98% A to 30% A (9-10 min), and 30% A (10–15 min). The flow rate was 0.5 mL/min. Sample injection volume was 10 μL. The MS data acquisition was via selected ion monitoring. The positive ion of the testing compound was selected, and the peak size was measured. The area under the plasma tolbutamide concentration versus time curve (AUC) was calculated by using the trapezoidal method.

[2] = Rat growth: body weight and liver weight after 5 days of daily oral dosing; assay type: in vivo, Sprague-Dawley rats; conditions: rats, oral 2 g/kg APE or 50 mg/kg AND daily for 5 days
Method: as §1
All animals were killed by exsanguination via the abdominal aorta while under carbon dioxide (CO2/O2, 70%/30%) anesthesia. Heparin was used as the anticoagulant. Plasma was separated from the blood by centrifugation (1750 ×g) at 4°C for 20 min. The liver from each animal was excised, weighed, and stored at −80°C. This research has received ethical approval from the institutional animal ethics committee of China Medical University, Taichung, Taiwan.

P-glycoprotein = assay: Immunoblot and RT-PCR of hepatic P-glycoprotein in treated rats; assay type: in vivo; conditions: rat liver; APE or andrographolide for 5 days
Method: For P-glycoprotein expression, liver tissue was homogenized with phosphate-buffered saline containing 0.2% Triton X-100, 5 mM EDTA, and 1 mM PMSF. The homogenates were then centrifuged at 10,000 ×g for 30 min at 4°C. Proteins in the resulting supernatants were electrophoretically separated and were immunoblotted with P-glycoprotein antibody. The immunoreactive bands were detected by using an enhanced chemiluminescence plus Western blotting detection reagent (Amersham Biosciences, Boston, MA, USA).
Total RNA in liver samples was extracted by using the Trizol reagent (1 : 20, w/v). […] The sequences for the PCR primers were as follows: for CYP1A1 (forward: 5′-[…]-3′; reverse: 5′-[…]-3′), CYP1A2 (forward: 5′-[…]-3′; reverse: 5′-[…]-3′), CYP2C6 (forward: 5′-[…]-3′; reverse: 5′-[…]-3′), CYP2C11 (forward: 5′-[…]-3′; reverse: 5′-[…]-3′), CYP2D1 (forward: 5′-[…]-3′; reverse: 5′-[…]-3′), CYP2E1 (forward: 5′-[…]-3′; reverse: 5′-[…]-3′), CYP3A1 (forward: 5′-[…]-3′; reverse: 5′-[…]-3′), CYP3A2 (forward: 5′-[…]-3′; reverse: 5′-[…]-3′), and P-glycoprotein (forward: 5′-[…]-3′; reverse: 5′-[…]-3′). […] The PCR amplicons were then electrophoresed in 1% agarose gels containing 40 mM Tris/20 mM glacial acetic acid/2 mM EDTA buffer, and the relative densities of the PCR products were quantitated by use of Image Gauge software (Fujifilm, Tokyo, Japan). […]

Compound: C=C1CC[C@@H]2[C@](C)(CO)[C@H](O)CC[C@@]2(C)[C@@H]1C/C=C1/C(=O)OC[C@H]1O [andrographolide, Andrographolide]
- Reduction of the AUC0–12 h of tolbutamide compared with controls [1]: 18%
- Relative liver weight ([2]; (liver weight/body weight) × 100): 3.8 ± 0.3%
- Body weight, Final ([2]; mean ± SD, n = 5): 332 ± 13^a g
- Liver weight ([2]; mean ± SD, n = 5): 12.8 ± 1.5 g
- Protein and mRNA levels of membrane transporter P-glycoprotein (P-glycoprotein): only a minor effect
